According to patent US20220062299A1, “USE OF GLUCOCORTICOID STEROIDS IN PREVENTING AND TREATING CONDITIONS OF MUSCLE WASTING, AGING AND METABOLIC DISORDER” (NORTHWESTERN UNIVERSITY, priority 2018, published 2022):

Test system: mdx mice
Assay: Dosing of metabolic and endocrine biomarkers in serum and tissues, mdx mice, 4-week daily or weekly prednisone
Assay type: in vivo
Conditions: 4-week treatment, mean ± s.e.m
Description: Animal handling and steroid regimens. Mice were housed in a pathogen-free dedicated vivarium in accordance with Institutional Animal Care and Use Committee (IACUC) guidelines. Euthanasia was performed through carbon dioxide inhalation followed by cervical dislocation and heart removal. All methods using living animals in this study were performed in ethical accordance with the American Veterinary Medical Association (AVMA) and under protocols fully approved by both the Institutional Animal Care and Use Committee (IACUC) at Northwestern University Feinberg School of Medicine (protocol number ISO00000761). Consistent with the ethical approvals, all efforts were made to minimize suffering. Mice were fed ad libitum with Mouse Breeder Sterilizable Diet (#7904; Harlan Teklad, Indianapolis, Ind.) and maintained on a 12-hour light/dark cycle. mdx mice from the DBA/2J background were obtained from the Jackson Laboratory (Bar Harbor, Me.; stock #013141) and interbred. Male mice were used for reported experiments. Age at start was approximately 6 months for short-term experiments, approximately 6 weeks for long-term experiments. Dysferlin-null (Dysf-null) mice from the 129T2/SvEmsJ background were previously characterized (Demonbreun et al., 2011; Demonbreun et al., 2014). Age at start was approximately 9 months for long-term experiments. For experiments with Dysf-null and wildtype mice, both females and males (approximately 1:1 ratio) were randomized in treatment groups. […] Dosing was based on weekly weight measurements (1 mg/kg body weight, (Sali et al., 2012)) in 100 μl total PBS volume per dose. […] On injection days, stock solutions stored at −20° C. were diluted into sterile Eppendorf tubes containing sterile phosphate buffered saline (PBS) (#14190; Thermo Fisher, Waltham, Mass.). Puromycin (cat #A1113803, Thermo Scientific, Waltham, Mass.) was administered i.p. as 0.040 μmol/body g, and tissues were snap-frozen 30 minutes after injection. Sterile BD Micro-Fine IV Insulin Syringes (#14-829-1A; Fisher Scientific, Waltham, Mass.) were used to inject the intraperitoneal cavity of non-sedated animals. All animal analyses both during treatment and at endpoint were conducted blinded to treatment groups.
Dosing of metabolic and endocrine biomarkers. Glycogen was quantitated using the Glycogen Assay Kit (#ab65620; Abcam, Cambridge, Mass.) from approximately 25 mg frozen-pulverized whole tissue, following manufacturer's instructions and internal standards for calculating μg/mg values. For measurement of whole-tissue ATP/NAD^+ levels, approximately 25 mg frozen-pulverized tissue was extracted in 10% perchloric acid and neutralized in 0.75 M K2CO3, as previously described (Ramsey et al., 2009). NAD+ and ATP were measured by high-pressure liquid chromatography (HPLC) with Shimadzu LC-20A pump (Shimadzu Scientific Instr Inc, Addison, Ill.) and UV-VIS detector, using a Supelco LC-18-T column (15 cm×[…]; #58970-U; Millipore-Sigma, St Louis, Mo.). […] ATP and NAD^+ eluted as sharp peaks at 3 and 14 minutes, respectively, and were normalized to tissue weight of frozen liver tissue for calculating pmol/mg values. Corticosterone was measured in mouse serum and cortisol was measured in human serum using dedicated ELISA kits (#ADI-900-097, Enzo Life Science, Farmingdale, N.Y.; #K7430-100, BioVision, Milpitas, Calif.) according to manufacturer's instructions and internal standards to calculate ng/ml values. Insulin levels were quantitated in mouse and human serum with species-specific ELISA kits (#10-1247-01 (mouse-specific); #10-1113-01 (human-specific); Mercodia, Uppsala, Sweden), following manufacturer's instructions and internal standards to calculate ng/ml values. Free fatty acids were quantitated using Enzychrom Free Fatty Acid Assay kit (#EFFA-100; BioAssay Systems, Hayward, Calif.), following kit's instructions and standards to calculate μM (serum) and nmol/mg (tissue) values. […]

## C[C@]12C=CC(=O)C=C1CC[C@@H]1[C@@H]2C(=O)C[C@@]2(C)[C@H]1CC[C@]2(O)C(=O)CO [prednisone, Prednisone]
Daily prednisone 1 mg/kg i.p.
  serum insulin: 3.09 ± 0.14 ng/mL
Daily prednisone
  serum BCAA: 657 ± 24.2 µM
  serum corticosterone: 127 ± 5.34 ng/mL
  serum free fatty acids: 546 ± 13.5 µM
  serum β-hydroxybutyrate: 476 ± 4.81 µM
  tissue BCAA, diaphragm: 64 ± 3.09 nmol/mg
  tissue BCAA, heart: 2.38 ± 0.09 nmol/mg
  tissue BCAA, omental fat: 28.2 ± 0.99 nmol/mg
  tissue BCAA, quadriceps: 118 ± 2.74 nmol/mg
  tissue free fatty acids, diaphragm: 2.07 ± 0.09 nmol/mg
  tissue free fatty acids, heart: 0.86 ± 0.03 nmol/mg
  tissue free fatty acids, omental fat: 6.01 ± 0.3 nmol/mg
  tissue free fatty acids, quadriceps: 4.11 ± 0.11 nmol/mg
  tissue β-hydroxybutyrate, diaphragm: 28.4 ± 0.93 nmol/mg
  tissue β-hydroxybutyrate, heart: 24.6 ± 0.88 nmol/mg
  tissue β-hydroxybutyrate, omental fat: 58.8 ± 2.29 nmol/mg
  tissue β-hydroxybutyrate, quadriceps: 31.8 ± 0.48 nmol/mg
Weekly prednisone 1 mg/kg i.p.
  serum insulin: 1.73 ± 0.07 ng/mL
Weekly prednisone
  serum BCAA: 457 ± 14.1 µM
  serum corticosterone: 194 ± 5.05 ng/mL
  serum free fatty acids: 386 ± 17.3 µM
  serum β-hydroxybutyrate: 425 ± 4.92 µM
  tissue BCAA, diaphragm: 43.8 ± 0.93 nmol/mg
  tissue BCAA, heart: 1.65 ± 0.07 nmol/mg
  tissue BCAA, omental fat: 18.1 ± 0.94 nmol/mg
  tissue BCAA, quadriceps: 89.6 ± 3.06 nmol/mg
  tissue free fatty acids, diaphragm: 1.11 ± 0.07 nmol/mg
  tissue free fatty acids, heart: 0.44 ± 0.02 nmol/mg
  tissue free fatty acids, omental fat: 4.35 ± 0.07 nmol/mg
  tissue free fatty acids, quadriceps: 1.25 ± 0.07 nmol/mg
  tissue β-hydroxybutyrate, diaphragm: 17.1 ± 0.77 nmol/mg
  tissue β-hydroxybutyrate, heart: 16.5 ± 0.56 nmol/mg
  tissue β-hydroxybutyrate, omental fat: 19 ± 0.39 nmol/mg
  tissue β-hydroxybutyrate, quadriceps: 16.4 ± 1.48 nmol/mg
